Data published in patent publication US6884808B2, “Heterocycle-containing carboxylic acid derivative and drug containing the same” (Eisai Co. Ltd., priority 1995, dated 2005).

Target: T1, Retinoic acid receptor: RAR (Homo sapiens, UniProt P10276)
T1 construct: using a fraction extracted from the nucleus of HL60; endogenous in cells; host or cells: HL60 cells, nucleus-extracted fraction (0.4 M KCl extract, 100,000 x g supernatant)
T1 sequence (P10276 1-462): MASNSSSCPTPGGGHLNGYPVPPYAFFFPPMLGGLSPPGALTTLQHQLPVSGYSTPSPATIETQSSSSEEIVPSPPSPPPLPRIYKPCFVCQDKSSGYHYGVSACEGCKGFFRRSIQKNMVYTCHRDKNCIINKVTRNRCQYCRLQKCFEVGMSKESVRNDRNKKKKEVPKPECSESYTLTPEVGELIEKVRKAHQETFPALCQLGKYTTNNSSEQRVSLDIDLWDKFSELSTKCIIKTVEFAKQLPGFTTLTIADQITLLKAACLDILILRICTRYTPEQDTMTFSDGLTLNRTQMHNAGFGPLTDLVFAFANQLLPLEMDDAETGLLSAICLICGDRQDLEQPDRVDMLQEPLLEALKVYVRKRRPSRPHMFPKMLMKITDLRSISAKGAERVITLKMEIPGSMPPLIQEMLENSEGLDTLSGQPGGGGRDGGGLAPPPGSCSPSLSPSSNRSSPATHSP
Experiment: Receptor binding assay by using human promyelocytic leukemia cells HL60 (nucleus-extracted fraction, 3H-all-trans retinoic acid)
Conditions: 50% inhibition concentration of 3H-all-trans retinoic acid binding, 4° C. for 16 hours
Experimental: Receptor binding assay by using human promyelocytic leukemia cells HL60
The nucleus-extracted fraction was prepared as described below.
In 15 ml of Solution A [5 mM sodium phosphate (pH 7.4), 10 mM monothioglycerol, 10% v/v glycerol, 1 mM phenylmethyl sulfonyl fluoride (PMSF), 10 μg/ml of aprotinin and 25 μg/ml of leupeptin], HL60 cells (5×10^8) were suspended. The resulting suspension was homogenized, followed by centrifugal separation to remove the supernatant. The precipitate so obtained was suspended in 15 ml of Solution B [10 mM tris-HCl (Tris-HCl) (pH 8.5), 10 mM monothioglycerol, 10% (v/v) glycerol, 1 mM PMSF, 10 μg/ml aprotinin, 25 μg/ml leupeptin and 0.4 M KC1]. After being allowed to stand at 4° C. for one hour, the resulting suspension was subjected to ultracentrifugation at 100,000 xg and 4° C. for one hour.
Receptor binding assay was carried out as follows:
The resulting mixture was allowed to stand at 4° C. for 16 hours. […] The count of the supernatant was determined by a scintillation counter.

| IC50 | Compound |
| --- | --- |
| 7.2 nM | CC1(C)CCC(C)(C)c2nc(-c3cc(-c4ccc(C(=O)O)cc4)co3)cnc21 [Compound of Ex. 4, 4-[4-[2-[2-(5,6,7,8-Tetrahydro-5,5,8,8-tetramethylquinoxalyl)]furyl]]benzoic acid] |
| 3.4 nM | CC(C)c1cc(-c2ccc(-c3ccc(C(=O)O)cc3)[nH]2)nn1C(C)(C)C [Compound of Ex. 99, 4-{2-{5-[3-(1-tert-Butyl-5-isopropylpyrazolyl)]pyrrolyl}}benzoic acid] |

Tested on: HL60 cells
Experiment: Differentiation and induction effects on HL60 cells (CD11b positive cells, flow cytometry)
Assay type: cell-based
Conditions: Homo sapiens, HL-60, 120 h; concentration at which the existing ratio of CD11b positive cells becomes 33%; cultivation for 5 days; read-out: Differentiation and induction effects of HL60 cells ED1/3
From the text: Differentiation and Induction Effects on HL60 Cells
It is known that human-derived promyelocytic leukemia cell strains HL60 differentiate into the corresponding granulocytic cells in the presence of all-trans retinoic acid [Breitman, T. Selonick., S. and Colling, S. Proc. Natl. Acad. Sci., 77, 2936(1980)]. In general, cells after differentiation have come to express specific differentiated antigens on their surface. When the HL60 cells are differentiated into granulocytic cells, CD11b which is a differential antigen between granulocytes and monocytes is expressed on the surface of the cells [Fontana, J A., Reppuci, A. Durham, J P. and Mirand, D. Cancer Res. 46, 2469-2473(1986)]. Effects of the invention compound on the differentiation and induction into granulocyte cells were studied by making use of the above-described phenomenon.
HL60 cells were cultured and kept in RPMI 1640 (a medium formulated by Rosewell Park Memorial Institute) to which 10% bovine fetal serum, 1 mM sodium […], 50 μM β-mercaptoethanol, 100 IU/ml of penicillin and 100 μg/ml of streptomycin had been added.
On each well of a 24-well plate, a 1 ml portion of the suspension containing HL60 in an amount of 1×10^5 […] was seeded. The invention compound was then added thereto at varied concentrations, followed by cultivation for 5 days in a 5% CO2-air incubator. After cultivation, the cells of each well were collected in a test tube, to which an FITC-labeled monoclonal antibody against Cd11b, that is, a granulocyte-monocyte specific antigen was added. The cells were then immobilized with 0.2% paraformaldehyde. The existing ratio of CD11b positive cells in the vial HL60 cell group present in each well was determined using flow cytometry [Miller, L J., Schwarting, R. and Springer, T A. J. Immunol. 137, 2891-2900(1986)]. The existing ratios of CD11b positive cells-of-compounds which will be described below were increased according to the concentration. The concentration at which the existing ratio of the positive cells becomes 33% is defined as ED1/3.

| Compound | EC (33% CD11b positive cells) |
| --- | --- |
| CC1=C(/C=C/C(C)=C/C=C/C(C)=C/C(=O)O)C(C)(C)CCC1 [All-trans-retinoic acid, reference compound] | 0.0018 µM |
| CC1(C)CCC(C)(C)c2nc(-c3cc(-c4ccc(C(=O)O)cc4)co3)cnc21 [Compound of Ex. 4, 4-[4-[2-[2-(5,6,7,8-Tetrahydro-5,5,8,8-tetramethylquinoxalyl)]furyl]]benzoic acid] | 0.0002 µM |
| CC(C)c1cc(-c2ccc(-c3ccc(C(=O)O)cc3)[nH]2)nn1C(C)(C)C [Compound of Ex. 99, 4-{2-{5-[3-(1-tert-Butyl-5-isopropylpyrazolyl)]pyrrolyl}}benzoic acid] | 4.7e-05 µM |

Tested on: not given
Experiment: not given
Conditions: not given

| Compound | melting point |
| --- | --- |
| CC1(C)CC(C)(C)c2nc(-c3cc(-c4ccc(C(=O)O)cc4)cs3)cnc21 [Example 31, 4-[4-[2-[2-(5,5,7,7-Tetramethylcyclopenta[b]pyrazinyl)]thienyl]]benzoic acid] | 222 °C (dec.) |
| Cc1[nH]c(-c2cnc3c(n2)C(C)(C)CCC3(C)C)cc1-c1ccc(C(=O)O)cc1 [Example 29, 4-[3-[5-[2-(5,6,7,8-Tetrahydro-5,5,8,8-tetramethylquinoxalyl)]-2-methylpyrrolyl]]benzoic acid] | 248 to 250 °C |
| CC1(C)CC(C)(C)c2nc(-c3cc(-c4ccc(C(=O)O)cc4)c[nH]3)cnc21 [Example 28, 4-[4-[2-[2-(5,5,7,7-Tetramethylcyclopenta[b]pyrazinyl)]pyrrolyl]]benzoic acid] | 145 to 147 °C |
| CC1(C)CC(C)(C)c2nc(-c3cc(-c4ccc(C(=O)O)cc4)co3)cnc21 [Example 39, 4-[4-[2-[2-(5,5,7,7-Tetramethylcyclopenta[b]pyrazinyl)]-furyl]]benzoic acid] | 250 to 252 °C |
| CC(C)c1ncc(-c2cc(-c3ccc(C(=O)O)cc3)co2)nc1C(C)C [Example 38, 4-[4-[2-[2-(5,6-Diisopropylpyrazinyl)]furyl]]benzoic acid] | 215 to 218 °C |
| Cn1cc(-c2ccc(C(=O)O)cc2)cc1-c1cnc2c(n1)C(C)(C)CC2(C)C [Example 35, 4-[4-[2-[2-(5,5,7,7-Tetramethylcyclopenta[b]pyrazinyl)]-1-methylpyrrolyl]]benzoic acid] | 250 °C (dec.) |
| Cc1c(-c2ccc(C(=O)O)cc2)cc(-c2cnc3c(n2)C(C)(C)CCC3(C)C)n1C [Example 37] | 265 to 267 °C |
| CCn1cc(-c2ccc(C(=O)O)cc2)cc1-c1cnc(C(C)C)c(C(C)C)n1 [Example 36, 4-[4-[2-[2-(5,6-Diisopropylpyrazinyl)]-1-ethylpyrrolyl]]benzoic acid] | 272 to 274 °C |
| CC(C)c1ncc(-c2cc(-c3ccc(C(=O)O)cc3)cs2)nc1C(C)C [Example 30, 4-[4-[2-[2-(5,6-Diisopropylpyrazinyl)]thienyl]]benzoic acid] | 226 to 229 °C |
| CC(C)c1ncc(-c2cc(-c3ccc(C(=O)O)cc3)c[nH]2)nc1C(C)C [Example 27, 4-[4-[2-[2-(5,6-Diisopropylpyrazinyl)]pyrrolyl]]benzoic acid] | 245 °C (dec.) |
| CC(C)n1cc(-c2ccc(C(=O)O)cc2)cc1-c1cnc2c(n1)C(C)(C)CCC2(C)C [Example 33, 4-[4-[2-[2-(5,6,7,8-tetrahydro-5,5,8,8-tetramethylquinoxalyl)]-1-isopropylpyrrolyl]]benzoic acid] | 225 to 227 °C |
| Cc1sc(-c2cnc3c(n2)C(C)(C)CCC3(C)C)cc1-c1ccc(C(=O)O)cc1 [Example 32, 4-[3-[5-[2-(5,6,7,8-Tetrahydro-5,5,8,8-tetramethylquinoxalyl)]-2-methylthienyl]]benzo acid] | 215 to 217 °C |

The next lines start with the values.

| melting point | Compound |
| --- | --- |
| 275 °C (dec.) | CC1(C)CC(C)(C)c2nc(-c3ccc(-c4ccc(C(=O)O)cc4)s3)cnc21 [Example 47, 4-[2-[5-[2-(5,5,7,7-Tetramethylcyclopenta[b]pyrazinyl)]-thienyl]]benzoic acid] |
| 270 to 272 °C | Cc1oc(-c2cnc3c(n2)C(C)(C)CCC3(C)C)cc1-c1ccc(C(=O)O)cc1 [Example 40, 4-[3-[5-[2-(5,6,7,8-Tetrahydro-5,5,8,8-tetramethylquinoxalyl)]-2-methylfuryl]]benzoic acid] |
| 248 to 250 °C | O=C(O)c1ccc(NC(=O)c2cnc(C3CCCC3)c(C3CCCC3)n2)cc1 [Example 90, 4-(2,3-Dicyclopentyl-2-pyrazinecarbamoyl)benzoic acid] |
| 260 to 262 °C | CC(C)c1ncc(-c2ccc(-c3ccc(C(=O)O)cc3)o2)nc1C(C)C [Example 48, 4-[2-[5-[2-(5,6-Diisopropropylpyrazinyl)]furyl]]benzoic acid] |
| 236 to 238 °C | CC1(C)CC(C)(C)c2nc(C(=O)Nc3ccc(C(=O)O)cc3)cnc21 [Example 89, 4-(5,5,7,7-Tetramethyl-2-cyclopenta[b]pyrazinecarbamoyl)benzoic acid] |
| 218 to 220 °C | Cn1c(-c2ccc(C(=O)O)cc2)ccc1-c1cnc2c(n1)C(C)(C)CC2(C)C [Example 50, 4-[2-[5-[2-(5,5,7,7-Tetramethylcyclopenta[b]pyrazinyl)]-1-methylpyrrolyl]]benzoic acid] |
| 257 to 259 °C | CC1(C)CCC(C)(C)c2nc(C(=O)Nc3ccc(C(=O)O)cc3)cnc21 [Example 88, 4-(5,6,7,8-Tetrahydro-5,5,8,8-tetramethyl-2-quinoxalinecarbamoyl)benzoic acid] |
| 270 to 272 °C | CC(C)c1ncc(-c2ccc(-c3ccc(C(=O)O)cc3)s2)nc1C(C)C [Example 46, 4-[2-[5-[2-(5,6,-Diisopropylpyrazinyl)]thienyl]]benzoic acid] |
| 238 to 240 °C | CC1(C)CC(C)(C)c2nc(-c3ccc(-c4ccc(C(=O)O)cc4)o3)cnc21 [Example 49, 4-[2-[5-[2-(5,5,7,7-Tetramethylcyclopenta[b]pyrazinyl)]-furyl]]benzoic acid] |
| 278 °C (dec.) | CC1(C)CCC(C)(C)c2nc(-c3ccc(-c4ccc(C(=O)O)cn4)[nH]3)cnc21 [Example 45, 6-[2-[5-[2-(5,6,7,8-Tetrahydro-5,5,8,8-tetramethylquinoxalyl)]pyrrolyl]]nicotinic acid] |
| 182 to 184 °C | CC(C)c1nnc(C(=O)Nc2ccc(C(=O)O)cc2)nc1C(C)C [Example 91, 4-(5,6-Diisopropyl-3-[1,2,4]triazinecarbamoyl)benzoic acid] |
| 215 °C (dec.) | CC(C)c1ncc(-c2ccc(-c3ccc(C(=O)O)cc3)n2C(C)C)nc1C(C)C [Example 51, 4-[2-[5-[2-(5,6-Diisopropylpyrazinyl)]-1-isopropylpyrrolyl]]benzoic acid] |
| 263 to 266 °C | CC1(C)CCC(C)(C)c2nc(-c3cc(-c4ccc(C(=O)O)cc4)cn3Cc3cccnc3)cnc21 [Example 41, 4-[4-[2-[2-(5,6,7,8-tetrahydro-5,5,8,8-tetramethylquinoxalyl)]-1-(3-pyridylmethyl)pyrrolyl]]benzoic acid] |
